Measurements reported in patent US7625889B2, “Substituted bis aryl and heteroaryl compounds as selective 5HT2A antagonists” (Aventis Pharmaceuticals Inc., priority 2005, dated 2009).

How the values were obtained:
[1] = target: T1, 5HT2A receptor site (Mus musculus, UniProt P35363); experiment: Head Twitch Assay (5-MeODMT induced head twitch); type: in vivo; settings: for ED50: mouse, sc, dose blocking 5-MeODMT (30 mg/kg i.p.) head twitch in 50% of male mice; for % effect @ 3 mg/kg: 3 mg/kg sc
T1 construct: from tissue; host or cells: live male mice (whole animal)
T1 sequence (P35363 whole entry): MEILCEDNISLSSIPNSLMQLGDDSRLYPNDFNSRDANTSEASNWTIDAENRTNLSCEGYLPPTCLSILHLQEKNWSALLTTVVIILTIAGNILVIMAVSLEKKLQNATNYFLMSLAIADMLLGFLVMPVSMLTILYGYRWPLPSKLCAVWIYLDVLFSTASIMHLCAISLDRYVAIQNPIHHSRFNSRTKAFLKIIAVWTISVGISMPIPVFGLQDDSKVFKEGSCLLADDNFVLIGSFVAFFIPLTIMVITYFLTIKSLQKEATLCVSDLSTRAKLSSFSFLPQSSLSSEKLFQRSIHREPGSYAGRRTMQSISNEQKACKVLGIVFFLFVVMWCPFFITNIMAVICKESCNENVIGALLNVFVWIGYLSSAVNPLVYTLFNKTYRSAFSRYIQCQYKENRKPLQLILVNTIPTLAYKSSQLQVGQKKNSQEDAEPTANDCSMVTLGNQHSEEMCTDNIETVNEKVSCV
Experimental: This Example 177 illustrates the study of efficacy of the compounds of this invention at the 5HT2A receptor site in animal models.
5-MeODMT (5-Methoxy-N,N-dimethyltryptamine) Inhibition: Groups of male mice are administered test compounds at selected doses. At an appropriate interval thereafter, 5-MeODMT (dissolved in 0.5% ascorbic acid) is administered at a dose of 30 mg/kg i.p. Immediately after administration of 5-MeODMT, and continuing for the following 6 min, the number of head twitches for each animal is counted. […] The ED50 is calculated as the dose necessary to block head twitch in 50% of the test animals. All experiments are performed with at least 10 animals per condition.

[2] = target: T2, human 5HT2A receptor (Homo sapiens, UniProt P28223); experiment: Receptor Binding Assay, 5HT2A ([3H]N-methyl spiperone); settings: BHK cells expressing human 5HT2A receptor, 2.5 nM [3H]N-methyl spiperone, 37° C.
T2 construct: expressed in transfected cells
T2 sequence (P28223 whole entry): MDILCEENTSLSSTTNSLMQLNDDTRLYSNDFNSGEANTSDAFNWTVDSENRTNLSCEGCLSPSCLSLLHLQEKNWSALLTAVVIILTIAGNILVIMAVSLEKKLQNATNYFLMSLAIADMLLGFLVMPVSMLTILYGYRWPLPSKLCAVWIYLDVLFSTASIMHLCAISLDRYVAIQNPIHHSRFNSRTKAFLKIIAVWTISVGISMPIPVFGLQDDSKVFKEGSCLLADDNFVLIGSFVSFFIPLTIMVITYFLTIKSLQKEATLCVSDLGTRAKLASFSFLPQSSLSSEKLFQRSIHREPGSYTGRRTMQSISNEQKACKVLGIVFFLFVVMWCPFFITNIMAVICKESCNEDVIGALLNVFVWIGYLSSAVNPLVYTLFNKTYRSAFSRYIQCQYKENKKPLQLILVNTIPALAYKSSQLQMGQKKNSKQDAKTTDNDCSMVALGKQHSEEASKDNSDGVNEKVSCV
Experimental: Cell Culture: BHK cells stably expressing the human 5HT2A receptor were maintained in Dulbecco's Modified Eagle's Medium supplemented with […] Geneticin, 1% Sodium Pyruvate, 1% Pen-Strep and 10% Fetal Calf Serum, and treated with 5 mM sodium butyrate for 24 h to increase receptor expression before harvesting. Cells were harvested by mechanical scraping, washed with Phosphate Buffered Saline, and stored at −80° C. in 10% DMSO in 1 mg/mil aliquots until used. Protein determination was made according to Lowry.
Receptor Binding Assays: The 5HT2A and D2L assays were conducted at 37° C. in a Tris buffer containing salts (50 mM Tris Buffer, pH 7.7; 120 mM NaCl; 5 mM KCl; 2 mM CaCl2; 1 mM MgCl2). Cell membranes (previously prepared and frozen) were rapidly thawed. Membranes were diluted to an appropriate concentration (to produce 100 μg protein/assay point for 5HT2A, and 58 μg protein/assay point for D2L) in Tris buffer and homogenized. Assays were conducted on 96-well plates, using 2.5 and 1 nM [^3H]N-methyl spiperone as radioligand for 5HT2A and D2L assays, respectively. Plates were incubated at 37° C. in a shaking water bath for 30 and 60 min, for 5HT2A and D2L, respectively. Nonspecific binding was defined using 100 μM methylsergide and eticlopride, for 5HT2A and D2L, respectively.
Assays were terminated by rapid filtration through Millipore MAFB or MAFC (5HT2C) filter plates (presoaked in 50 mM Tris HCl, pH 7.7, with 0.1% Brij) using a Millipore Cell Harvester. The filter plates were then washed with ice-cold 50 mM Tris buffer, pH 7.7, and allowed to dry overnight. 50 μl of Microscint scintillation cocktail were added and the plates were counted in a Packard Topcount scintillation counter.
IC50 and Ki calculations were performed using nonlinear regression one-site competition analysis (GraphPad, Prism), with top and bottom limits held constant at 0% and 100% inhibition, respectively. The percent inhibition at each drug concentration was the average of duplicate determinations. Except where indicated, each determination was performed 2 to 5 times.

SMILES | % effect @ 1 mg/kg ([1]; 1 mg/kg sc, head twitch, male mice) [%] | ED50 [1] [mg/kg] | Ki [2] [nM] | % effect @ 3 mg/kg ([1]; head twitch, male mice) [%]
CN(C)CCN(Cc1ccccc1)Cc1cccc(-c2ccc3[nH]c(=O)oc3c2)c1.Cl [Example 3] | 100 | < 1 | 0.9 | –
O=C(c1ccc(F)cc1)N(CCN1CCCC1)Cc1cc(-c2ccc3[nH]ccc3c2)ccc1F [Example 20, 4-Fluoro-N-[2-fluoro-5-(1H-indol-5-yl)-benzyl]-N-(2-pyrrolidin-1-yl-ethyl)-benzamide] | – | 0.27 | 0.32 | –
O=C(c1ccc(F)cc1)N(CCN1CCCC1)Cc1cc(-c2ccc3[nH]c(=O)oc3c2)ccc1F [Example 21] | – | < 3 | 0.26 | 60
Cc1cc2cc(-c3ccc(F)c(CN(CCN(C)C)C(=O)c4ccc(F)cc4)c3)ccc2[nH]1 [Example 23] | – | 0.16 | 0.37 | –
CN(C)CCN(Cc1cc(-c2ccc3[nH]ccc3c2)ccc1F)C(=O)c1ccc(F)cc1 [Example 26] | – | 0.82 | 0.68 | –
CN1CCC(N(Cc2cccc(-c3ccc4[nH]ccc4c3)c2)C(=O)c2ccc(F)cc2)CC1 [Example 27] | – | 0.59 | 0.7 | –
CN1CCC(N(Cc2cc(-c3ccc4[nH]ccc4c3)ccc2F)C(=O)c2ccc(F)cc2)CC1 [Example 34] | – | 1.09 | 1.25 | –
Fc1ccc([C@H]2CNCCN2Cc2cc(-c3ccc4[nH]ncc4c3)ccc2F)cc1 [Example 42, {4-Fluoro-3-[2S-(4-fluoro-phenyl)-piperazin-1-ylmethyl]-phenyl}-1H-indazole] | – | 1.73 | 0.61 | –
CC(=O)O.Fc1ccc(-c2ccc3[nH]ncc3c2)cc1CN1CCNC[C@@H]1c1cccs1 [Example 44] | – | 0.54 | – | –
Fc1ccc(-c2ccc3[nH]ncc3c2)cc1CN1CCNCC1c1cccs1 (stereo not shown) [Example 47] | – | ~3 | 1.24 | 50
CC(=O)O.CN1CCN(Cc2cncc(-c3ccc4[nH]ccc4c3)c2)[C@@H](c2ccc(F)cc2)C1 [Example 91, 5-{5-[2S-(4-Fluoro-phenyl)-4-methyl-piperazin-1-ylmethyl]-pyridin-3-yl}-1H-indole acetate] | – | 0.41 | 0.6 | –
CN1CCN(Cc2cc(-c3ccc4[nH]ccc4c3)ccc2F)[C@@H](c2ccc(F)cc2)C1 [Example 92, 5-{4-Fluoro-3-[2S-(4-fluoro-phenyl)-4-methyl-piperazin-1-ylmethyl]-phenyl}-1H-indole] | – | 0.53 | – | –
CN1CCN(Cc2cc(-c3ccc4[nH]ccc4c3)co2)[C@@H](c2ccc(F)cc2)C1.O=C(O)C(F)(F)F [Example 94, 5-{5-[2S-(4-Fluoro-phenyl)-4-methyl-piperazin-1-ylmethyl]-furan-3-yl}-1H-indole; compound with trifluoro-acetate] | – | ~3 | – | 50
CC(=O)O.CN1CCN(Cc2cc(-c3ccc4[nH]c(=O)oc4c3)co2)[C@@H](c2ccc(F)cc2)C1 [Example 95, 6-{5-[2S-(4-Fluorophenyl)-4-methylpiperazine-1-ylmethyl]-furan-3-yl}-3H-benzoxazol-2-one] | – | 0.5 | 1.9 | –
CC(=O)O.CN1CCN(Cc2cncc(-c3ccc4[nH]c(=O)oc4c3)c2)[C@@H](c2ccc(F)cc2)C1 [Example 98, 6-{5-[2S-(4-Fluoro-phenyl)-4-methyl-piperazin-1-ylmethyl]-pyridin-3-yl}-3H-benzooxazol-2-one acetate] | – | 0.49 | 1.2 | –
CN(C)CCN(Cc1cc(-c2ccc3[nH]c(=O)oc3c2)ccc1F)C(=O)c1ccc(F)cc1 [Example 104, N-(2-Dimethylamino-ethyl)-4-fluoro-N-[2-fluoro-5-(2-oxo-2,3-dihydro-benzooxazol-6-yl)-benzyl]-benzamide] | – | 6.36 | 0.31 | –
CN1CCC(N(Cc2ccc(F)cc2)Cc2cc(-c3ccc4[nH]ncc4c3)co2)CC1 [Example 119, (4-Fluoro-benzyl)-[4-(1H-indazol-5-yl)-furan-2-ylmethyl]-(1-methyl-piperidin-4-yl)-amine] | – | – | 0.78 | –
CN1CCN(Cc2cccc(-c3ccc4[nH]ccc4c3)c2)CC1 [Example 120, 5-[3-(4-Methyl-piperazin-1-ylmethyl)-phenyl]-1H-indole] | – | – | 65 | –
CN1CCCN(Cc2cccc(-c3ccc4[nH]ccc4c3)c2)CC1 [Example 121, 5-[3-(4-Methyl-[1,4]diazepan-1-ylmethyl)-phenyl]-1H-indole] | – | – | 82 | –
O=C(c1ccc(F)cc1)N(CCN1CCCC1)Cc1cc(F)cc(-c2ccc3[nH]ccc3c2)c1 [Example 133, 4-Fluoro-N-[3-fluoro-5-(1H-indol-5-yl)-benzyl]-N-(2-pyrrolidin-1-yl-ethyl)-benzamide] | – | 0.92 | – | –
CN(C)CCN(Cc1ccc(F)cc1)Cc1cc(-c2ccc3[nH]cc(C#N)c3c2)ccc1F [Example 140, 5-(3-{[(2-Dimethylamino-ethyl)-(4-fluoro-benzyl)-amino]-methyl}-4-fluoro-phenyl)-1H-indole-3-carbonitrile trifluoro-acetate] | – | – | 22.6 | –
CC(=O)O.CN1CCN(Cc2cc(-c3ccc4[nH]ncc4c3)ccc2F)[C@@H](c2cccs2)C1 [Example 159, 5-[4-Fluoro-3-(4-methyl-2R-thiophen-2-yl-piperazin-1-ylmethyl)-phenyl]-1H-indazole acetate] | – | 0.04 | – | –
CN1CCN(Cc2cc(-c3ccc4[nH]ncc4c3)co2)[C@@H](c2ccc(F)cc2)C1 [Example 161, 5-{5-[2S-(4-Fluoro-phenyl)-4-methyl-piperazin-1-ylmethyl]-furan-3-yl}-1H-indazole] | – | 0.16 | – | –
CN1CCN(C(=O)c2cc(-c3ccc4[nH]ccc4c3)ccc2F)[C@@H](c2ccc(F)cc2)C1 [Example 171, [2-Fluoro-5-(1H-indol-5-yl)-phenyl]-[2S-(4-fluoro-phenyl)-4-methyl-piperazin-1-yl]-methanone] | – | – | 85 | –
Fc1ccc([C@H]2CNCCN2Cc2cc(-c3ccc4[nH]ccc4c3)ccc2F)cc1 [Example 174, 5-{4-Fluoro-3-[2S-(4-fluoro-phenyl)-piperazin-1-ylmethyl]-phenyl}-1H-indole acetate] | – | – | 0.9 | –
CN1CCN(Cc2cc(-c3ccc4[nH]cc(C#N)c4c3)ccc2F)[C@@H](c2ccc(F)cc2)C1 [Example 175, 5-{4-Fluoro-3-[2S-(4-fluoro-phenyl)-4-methyl-piperazin-1-ylmethyl]-phenyl}-1H-indole-3-carbonitrile] | – | – | 3.2 | –
